Converted amounts (≈) assume the structure as drawn.
Key:
Plasmodium falciparum [1] = experiment: Antimalarial activity against drug-resistant Plasmodium falciparum C235 after 72 hrs by SYBR green I staining-based fluorescence assay; format: functional, organism-based; conditions: C235, 72 h
HepG2 = experiment: Cytotoxicity against human HepG2 cells after 48 hrs by MTT assay; format: cell-based; conditions: HepG2, 48 h
Plasmodium falciparum [2] = experiment: Antimalarial activity against drug-sensitive Plasmodium falciparum D6 after 72 hrs by SYBR green I staining-based fluorescence assay; format: functional, organism-based; conditions: D6, 72 h
Plasmodium berghei [3] = experiment: Antimalarial activity against liver stage Plasmodium berghei ANKA sporozoites infected in human HepG2 cells after 48 hrs by luciferase reporter gene assay; format: functional, organism-based; conditions: HepG2, 48 h
[4] = Half life in mouse plasma at 1 mM by LC/MS analysis; format: ADME, cell-free
[5] = Half life in human plasma at 1 mM by LC/MS analysis; format: ADME, cell-free
[6] = Efflux ratio of apparent permeability from basolateral to apical side to apical to basolateral side in MDCK cells; format: ADME, cell-based, Canis lupus familiaris; conditions: dog
[7] = Apparent permeability from apical to basolateral side in MDCK cells at 10 uM after 1 hr by LC/MS analysis; format: ADME, cell-based, Canis lupus familiaris; conditions: dog
Plasmodium falciparum [8] = experiment: Ratio of IC50 for drug-resistant Plasmodium falciparum C235 to IC50 for drug-sensitive Plasmodium falciparum D6; format: functional
Plasmodium berghei [9] = experiment: Ratio of chloroquine IC50 to compound IC50 for liver stage Plasmodium berghei ANKA sporozoites infected in human HepG2 cells; format: functional
[10] = Apparent permeability from basolateral to apical side in MDCK cells at 10 uM after 1 hr by LC/MS analysis; format: ADME, cell-based, Canis lupus familiaris; conditions: dog
Plasmodium berghei [11] = experiment: Ratio of mefloquine IC50 to compound IC50 for liver stage Plasmodium berghei ANKA sporozoites infected in human HepG2 cells; format: functional

Row | Structure (SMILES) | IC50 (Plasmodium falciparum [1]) [µg/mL] | IC50 (HepG2) [µg/mL] | IC50 (Plasmodium falciparum [2]) [µg/mL] | IC50 (Plasmodium berghei [3]) [µg/mL] | half-life [4] [min] | half-life [5] [min] | efflux ratio [6] | Papp A→B at 1 h, 10 µM [7] [×10⁻⁶ cm/s] | Ratio IC50 (Plasmodium falciparum [8]) | Ratio IC50 (Plasmodium berghei [9]) | Papp B→A at 1 h, 10 µM [10] [×10⁻⁶ cm/s] | Ratio IC50 (Plasmodium berghei [11])
1 | Cc1ccc(/C=C2\CN(C(=O)c3ccc(OCCN(C)C)cc3)C/C(=C\c3ccc(C)cc3)C2=O)cc1.Cl | > 2 | > 2 | > 2 | > 2 | – | – | – | – | – | – | – | –
2 | O=C1/C(=C/c2ccc([N+](=O)[O-])cc2)CNC/C1=C\c1ccc([N+](=O)[O-])cc1 | 0.0412 (≈ 0.113 µM) | > 2 | 0.0375 (≈ 0.103 µM) | 0.356 (≈ 0.974 µM) | 22.5 | > 60 | 0.01 | 0.28 | 1.1 | – | – | –
3 | CN(C)CCOc1ccc(C(=O)N2C/C(=C\c3ccccc3)C(=O)/C(=C/c3ccccc3)C2)cc1.Cl | > 2 | – | 1.75 | – | – | – | – | – | >1.14 | – | – | –
4 | Cc1ccc(/C=C2\CNC/C(=C\c3ccc(C)cc3)C2=O)cc1 | 0.285 (≈ 0.939 µM) | > 2 | 0.249 (≈ 0.821 µM) | 0.159 (≈ 0.524 µM) | 14.6 | 17.2 | – | – | 1.15 | – | – | –
5 | Cl.O=C1/C(=C/c2ccccc2)CN(C(=O)c2ccc(OCCN3CCOCC3)cc2)C/C1=C\c1ccccc1 | > 2 | – | 1.42 | – | – | – | – | – | >1.41 | – | – | –
6 | Cl.O=C1/C(=C/c2ccc(Cl)cc2)CN(C(=O)c2ccc(OCCN3CCCCC3)cc2)C/C1=C\c1ccc(Cl)cc1 | > 2 | – | > 2 | – | – | – | – | – | >1.06 | – | – | –
7 | CCN(CC)CCCC(C)Nc1ccnc2cc(Cl)ccc12.O=P(O)(O)O.O=P(O)(O)O (stereo not drawn) [CHLOROQUINE PHOSPHATE] | – | > 2 | – | > 2 | – | – | – | – | – | – | – | –
8 | Cl.O=C1/C(=C/c2ccccc2)CN(C(=O)c2ccc(OCCN3CCCCC3)cc2)C/C1=C\c1ccccc1 | 0.74 | – | 0.794 | – | – | – | – | – | 0.93 | – | – | –
9 | Cc1ccc(/C=C2\CN(C(=O)c3ccc(OCCN4CCOCC4)cc3)C/C(=C\c3ccc(C)cc3)C2=O)cc1.Cl | > 2 | – | 0.846 | – | – | – | – | – | >2.36 | – | – | –
10 | Cl.O=C1/C(=C/c2ccc([N+](=O)[O-])cc2)CN(C(=O)c2ccc(OCCN3CCCCC3)cc2)C/C1=C\c1ccc([N+](=O)[O-])cc1 | 0.288 | > 2 | 0.25 | 0.165 | – | – | – | – | 1.15 | – | – | –
11 | Cc1ccc(/C=C2\CN(C(=O)c3ccc(OCCN4CCCCC4)cc3)C/C(=C\c3ccc(C)cc3)C2=O)cc1.Cl | 0.713 | – | 0.682 | – | – | – | – | – | 1.05 | – | – | –
12 | O=C1/C(=C/c2ccccc2)CNC/C1=C\c1ccccc1 | 0.162 (≈ 0.588 µM) | > 2 | 0.139 (≈ 0.505 µM) | 0.0935 (≈ 0.34 µM) | 19.5 | 11.8 | 0.02 | 5.74 | 1.17 | >21 | 0.1 | >21
13 | CCN(CC)CCOc1ccc(C(=O)N2C/C(=C\c3ccccc3)C(=O)/C(=C/c3ccccc3)C2)cc1.Cl | 0.311 | > 2 | 0.412 | 0.383 | – | – | – | – | 0.76 | – | – | –
14 | O=C1/C(=C/c2ccc(Cl)cc2)CNC/C1=C\c1ccc(Cl)cc1 | 0.128 (≈ 0.372 µM) | > 2 | 0.103 (≈ 0.299 µM) | 0.597 (≈ 1.73 µM) | > 60 | > 60 | – | – | 1.24 | – | – | –
15 | Cl.O=C1/C(=C/c2ccc([N+](=O)[O-])cc2)CN(C(=O)c2ccc(OCCN3CCOCC3)cc2)C/C1=C\c1ccc([N+](=O)[O-])cc1 | 0.53 | > 2 | 0.433 | 0.357 | – | – | – | – | 1.22 | – | – | –
16 | CCN(CC)CCOc1ccc(C(=O)N2C/C(=C\c3ccc(Cl)cc3)C(=O)/C(=C/c3ccc(Cl)cc3)C2)cc1.Cl | > 2 | – | > 2 | – | – | – | – | – | – | – | – | –
17 | O[C@@H](c1cc(C(F)(F)F)nc2c(C(F)(F)F)cccc12)[C@H]1CCCCN1 (relative stereo) [(S,R)-MEFLOQUINE] | 0.0167 (≈ 0.0441 µM) | > 2 | 0.0066 (≈ 0.0174 µM) | > 2 | > 60 | > 60 | 6.17 | 0.6 | 2 | – | 3.7 | –
18 | CCN(CC)CCCC(C)Nc1ccnc2cc(Cl)ccc12 (stereo not drawn) [CHLOROQUINE] | – | – | – | – | > 60 | > 60 | – | 13 | – | – | 14 | –
19 | CCN(CC)CCOc1ccc(C(=O)N2C/C(=C\c3ccc([N+](=O)[O-])cc3)C(=O)/C(=C/c3ccc([N+](=O)[O-])cc3)C2)cc1.Cl | 0.146 | > 2 | 0.202 | 0.186 | – | – | – | – | 0.72 | – | – | –
20 | CN(C)CCOc1ccc(C(=O)N2C/C(=C\c3ccc([N+](=O)[O-])cc3)C(=O)/C(=C/c3ccc([N+](=O)[O-])cc3)C2)cc1.Cl | 0.372 | > 2 | 0.424 | 0.31 | – | – | – | – | 0.88 | – | – | –
21 | CCN(CC)CCOc1ccc(C(=O)N2C/C(=C\c3ccc(C)cc3)C(=O)/C(=C/c3ccc(C)cc3)C2)cc1.Cl | 0.555 | > 2 | 0.536 | 0.483 | – | – | – | – | 1.03 | – | – | –
22 | CN(C)CCOc1ccc(C(=O)N2C/C(=C\c3ccc(Cl)cc3)C(=O)/C(=C/c3ccc(Cl)cc3)C2)cc1.Cl | 0.565 | – | 0.497 | – | – | – | – | – | 1.14 | – | – | –

— ChEMBL document CHEMBL3091370, “3,5-bis(benzylidene)-4-piperidones and related N-acyl analogs: a novel cluster of antimalarials targeting the liver stage of Plasmodium falciparum” (Bioorg Med Chem, 2013)
